Measurements from paper PMC10243242 (European Journal of Clinical Pharmacology, 2023).
Several values for one entry are separate records, joined by “and”; a condition that tells them apart may be missing. Equal values may be shown once. Read-outs that look alike come from different tables or passages of the source. Marks after values point to notes of the source that are not given here.

Assays:
[1] = Clinical drug-drug interaction study: plasma pharmacokinetics of dextromethorphan and dextrorphan with and without emvododstat; type: in vivo, human; settings: for CL/F: dextromethorphan; for Tmax: median (range)
Protocol: (§1) On day 1, 18 healthy subjects (ages ≥ 18 and ≤ 65 years) received a single oral dose of 30 mg (capsule) dextromethorphan followed by a 4-day washout period. On day 5, subjects received a single oral dose of 250 mg emvododstat with food. Two hours later, subjects were administered a single oral dose of 30 mg modified-release dextromethorphan.
Blood samples (3 mL) for dextromethorphan and dextrorphan assessments were collected in K2EDTA vacutainers on day 1 (dextromethorphan alone) and on day 5 (dextromethorphan in combination with emvododstat) at the following timepoints: 0- (predose), 0.5-, 1-, 2-, 3-, 4-, 5-, 6-, 8-, 12-, 24-, and 48-h post dextromethorphan dose. Within 120 min of collection of blood samples, plasma was harvested by centrifuging blood samples at 2000 ± 20 g for 10 min at 4 °C. Upon harvesting, plasma was transferred to 2-mL polypropylene tubes and immediately stored at – 20 ± 5 °C until analysis.
Concentrations of dextromethorphan and dextrorphan in human plasma samples were determined using high-performance liquid chromatography with tandem mass […] (LC-MS/MS) detection. The bioanalytical method was validated, and its performance during bioanalysis was within the limits specified in current regulatory guidance over a calibration range of 50 to 50,000 pg/mL. Validation included testing such as linearity, sensitivity, specificity, selectivity, accuracy and precision, dilution effects, recovery, ruggedness, and stability.
Briefly, dextromethorphan and dextrorphan were extracted from 0.2 mL of human K2EDTA plasma using an automated liquid–liquid extraction followed by detection using LC-MS/MS. Stable isotope labeled internal standard (dextromethorphan-d3 and dextrorphan-d3) was used to track the analytes potential variability. To 0.2 mL of plasma, the internal standard (IS) working solution diluted in an ammonium formate/ammonium hydroxide buffer solution was added. The analytes and ISs were extracted using methyl-tert-butyl-ether (MTBE). A portion of the upper layer was transferred to a 96 deep well collection plate using an automated liquid handling system. After evaporation to dryness, the dry residue was reconstituted with the mobile phase and injected on a Sciex API 4000. The chromatographic separation was performed in isocratic mode using BetaSil CN column (dimensions 50 × 4.6 mm, 5 μm) and methanol/Milli-Q type water with ammonium formate and formic acid as mobile phase. The mass spectrometer detection was performed in positive ion mode with multiple reaction monitoring (MRM) transitions of 272.2 → 215.3, 275.2 → 215.3, 258.2 → 201.2, and 261.2 → 157.2 for dextromethorphan, dextromethorphan-d3, dextrorphan, and dextrorphan-d3, respectively.
Dextromethorphan and dextrorphan concentrations in study plasma samples were determined using duplicate plasma calibration curves of dextromethorphan and dextrorphan in each analytical batch. Additionally, duplicate quality control plasma samples spiked with dextromethorphan and dextrorphan at four concentration levels (low, 150 pg/mL; intermediate, 2000 pg/mL; medium, 25,000 pg/mL; and high, […]) were included in each analytical batch to assess the assay performance of the bioanalytical method. The accuracy (%bias) of QC samples in all analytical batches was within ± 4.6%, and precision (%coefficient of variation) was less than 6.2% for dextromethorphan and dextrorphan.
Non-compartmental pharmacokinetics were performed using Phoenix® WinNonlin (Version 8.1, Certara, Princeton, NJ, USA). Primary parameters consisted of AUC0-last, AUC0-inf, and Cmax. Secondary parameters included T1/2, Tmax, and CL/F (drug clearance). Bioavailability assessments were calculated using SAS software (Version 9.4, SAS, Cary, NC, USA) in accordance with current regulatory guidelines. A mixed linear model was fitted on log-transformed AUC0-inf, AUC0-t, and Cmax for both parent and metabolite. […]

[2] = Safety and tolerability in healthy subjects; type: in vivo, human; settings: single doses of dextromethorphan 30 mg with and without emvododstat 250 mg, 18 healthy subjects
From the text: The safety and tolerability of dextromethorphan alone and with emvododstat were monitored.

CYP2D6 [3] = target: T1, CYP2D6 (Homo sapiens, UniProt P10635); set-up: method as in PMID 34846990; settings: cited from earlier work
SARS-CoV-2 = system: SARS-CoV-2; set-up: method as in PMID 33249060; settings: SARS-CoV-2019, cell culture, cited from earlier work
[4] = humans; cited from earlier work
[5] = rats dosed for up to 28 days; cited from earlier work
[6] = system: human bone marrow progenitor cells; settings: cultured human bone marrow progenitor cells; cited from earlier work
CYP2D6 [7] = target: T1, CYP2D6; experiment: Clinical drug-drug interaction study: in vivo CYP2D6 inhibition with dextromethorphan as probe substrate; set-up: On day 1, 18 healthy subjects (ages ≥ 18 and ≤ 65 years) received a single oral dose of 30 mg (capsule) dextromethorphan; from tissue; host or cells: Healthy human subjects in vivo; The enzyme is their own; settings: single oral dose 250 mg emvododstat, dextromethorphan as sensitive probe substrate, healthy subjects
Protocol: as §1
Non-compartmental pharmacokinetics were performed using Phoenix® WinNonlin (Version 8.1, Certara, Princeton, NJ, USA). Primary parameters consisted of AUC0-last, AUC0-inf, and Cmax. Secondary parameters included T1/2, Tmax, and CL/F (drug clearance). Bioavailability assessments were calculated using SAS software (Version 9.4, SAS, Cary, NC, USA) in accordance with current regulatory guidelines. A mixed linear model was fitted on log-transformed AUC0-inf, AUC0-t, and Cmax for both parent and metabolite. The model included terms for treatment (combined emvododstat + dextromethorphan as test treatment versus dextromethorphan as reference treatment) and subject as a random factor. LSM (geometric least squares mean) for the treatment ratio and 90% confidence intervals (90% CI) were estimated from the model.

[8] = dogs dosed for up to 28 days; cited from earlier work
[9] = dextromethorphan with emvododstat vs alone
[10] = dextrorphan in plasma after 30 mg dextromethorphan alone, geometric mean (%CV)
[11] = dextrorphan in plasma after 30 mg dextromethorphan with 250 mg emvododstat, geometric mean (%CV)

T1 sequence (P10635 whole entry): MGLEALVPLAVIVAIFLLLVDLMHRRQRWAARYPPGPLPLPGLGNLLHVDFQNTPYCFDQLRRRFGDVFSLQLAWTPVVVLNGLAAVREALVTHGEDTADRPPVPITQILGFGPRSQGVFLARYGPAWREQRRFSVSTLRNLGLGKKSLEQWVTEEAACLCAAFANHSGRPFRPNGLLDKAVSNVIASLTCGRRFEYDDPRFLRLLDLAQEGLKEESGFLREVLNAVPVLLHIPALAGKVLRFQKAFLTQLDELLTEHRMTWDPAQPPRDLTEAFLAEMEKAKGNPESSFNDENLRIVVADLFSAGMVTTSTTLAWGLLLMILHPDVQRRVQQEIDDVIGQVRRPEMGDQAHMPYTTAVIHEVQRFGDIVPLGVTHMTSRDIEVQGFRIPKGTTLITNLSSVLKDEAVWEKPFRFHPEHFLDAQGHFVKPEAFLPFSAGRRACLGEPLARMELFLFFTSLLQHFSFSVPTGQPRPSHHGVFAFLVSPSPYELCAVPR

For `COc1ccc2c(c1)[C@]13CCCC[C@@H]1[C@H](C2)N(C)CC3` [Dextromethorphan, dextromethorphan, reference compound], the T1/2 ([1]; dextromethorphan in plasma, 30 mg dextromethorphan with 250 mg emvododstat (day 5), geometric mean (%CV), n = 16) was 41.4^b (39.2) h, the T1/2 ([1]; dextromethorphan in plasma, 30 mg oral dextromethorphan alone (day 1), geometric mean (%CV)) was 9.15 (25.2) h and the “Increase in T1/2” value [1, 9] was 32 h. The “Reduction in clearance (CL/F)” value [1, 9] was 94%, the CL/F ([1]; 30 mg dextromethorphan with 250 mg emvododstat (day 5), geometric mean (%CV), n = 16) was 81.5^b (117.0) L/h and the CL/F ([1]; 30 mg oral dextromethorphan alone (day 1), geometric mean (%CV)) was 1367 (176.7) L/h. The AUC(0-t) ([1]; human, oral, dextromethorphan in plasma, 30 mg dextromethorphan with 250 mg emvododstat (day 5), geometric mean (%CV)) was 0.157 µg·h/mL, the AUC(0-inf) ([1]; human, oral, dextromethorphan in plasma, 30 mg dextromethorphan with 250 mg emvododstat (day 5), geometric mean (%CV), n = 16, read-out: AUC0-inf) was 0.362 µg·h/mL and the Tmax ([1]; human, oral, dextromethorphan in plasma, 30 mg dextromethorphan with 250 mg emvododstat (day 5), read-out: Tmax) was 4 h. The half-life ([1]; human, plasma, oral, dextromethorphan in plasma, 30 mg dextromethorphan with 250 mg emvododstat (day 5), geometric mean (%CV), n = 16, read-out: T1/2 (converted)) was 41 h, the half-life ([1]; human, plasma, po, 30 mg, dextromethorphan in plasma, 30 mg oral dextromethorphan alone (day 1), geometric mean (%CV), read-out: T1/2 (converted)) was 9 h and the Cmax ([1]; human, dextromethorphan in plasma, 30 mg dextromethorphan 2 h after 250 mg oral emvododstat (day 5), geometric mean (%CV)) was 5.85 ng/mL. The AUC(0-t) ([1]; human, dextromethorphan in plasma, 30 mg oral dextromethorphan alone (day 1), geometric mean (%CV)) was 0.0188 µg·h/mL, the AUC(0-inf) ([1]; human, dextromethorphan in plasma, 30 mg oral dextromethorphan alone (day 1), geometric mean (%CV), read-out: AUC0-inf) was 0.0216 µg·h/mL and the Cmax ([1]; human, dextromethorphan in plasma, 30 mg oral dextromethorphan alone (day 1), healthy subjects, geometric mean (%CV)) was 2.01 ng/mL. For the same compound, the Tmax ([1]; human, dextromethorphan in plasma, 30 mg oral dextromethorphan alone (day 1), read-out: Tmax) was 4 h and the Drug-related adverse effects [2] was “mild and reversible”.

In the case of `O=C(Oc1ccc(Cl)cc1)N1CCc2c([nH]c3ccc(Cl)cc23)C1c1ccc(O)cc1` (stereo not shown) [O-desmethyl emvododstat], the “Inhibition of CYP2D6 activity (in words)” value (CYP2D6 [3]; in vitro, compared with emvododstat) is given as “to a lesser extent”.

With `CN1CC[C@@]23CCCC[C@@H]2[C@@H]1Cc1ccc(O)cc13` [Dextrorphan, dextrorphan] the “Geometric mean metabolite/parent ratio for AUC (dextrorphan/dextromethorphan)” value ([1]; dextromethorphan in the presence of emvododstat) was 0.182 and 0.18, the AUC0-last [1, 10] was 31,852 (45.7) h·pg/mL and the AUC(0-inf) [1, 10] was 33,194 (43.8) h·pg/mL. The AUC0-last [1, 11] was 29,382 (40.7) h·pg/mL, the AUC(0-inf) [1, 11] was 30,875 (38.8) h·pg/mL and the Tmax ([1]; dextrorphan in plasma after 30 mg dextromethorphan with 250 mg emvododstat) was 4 (1–4) h. The “Effect of CYP2D6 inhibition on peak exposure (Cmax)” value ([1]; dextrorphan, Cmax LSM ratio just inside, 90% CIs outside of the no effect range 0.80 to 1.25) was “slightly affected”, the Cmax ([1]; human, oral, dextrorphan in plasma after 30 mg dextromethorphan alone, geometric mean (%CV)) was 5 ng/mL and the Cmax ([1]; human, oral, dextrorphan in plasma after 30 mg dextromethorphan with 250 mg emvododstat, geometric mean (%CV)) was 4.05 ng/mL. It also gave a half-life ([1]; human, plasma, oral, 30 mg, dextrorphan in plasma after 30 mg dextromethorphan alone, geometric mean (%CV), read-out: T1/2 (converted)) of 5.86 h, a half-life ([1]; human, plasma, oral, dextrorphan in plasma after 30 mg dextromethorphan with 250 mg emvododstat, geometric mean (%CV), read-out: T1/2 (converted)) of 8.41 h and a half-life ([1]; human, plasma, oral, dextrorphan, alone and in combination with emvododstat, read-out: Effective T1/2) of 6 to 8 h. It also gave an AUC(0-t) ([1]; human, plasma, oral, dextrorphan, 30 mg dextromethorphan capsules alone) of 0.0319 µg·h/mL, an AUC(0-inf) ([1]; human, plasma, oral, dextrorphan, 30 mg dextromethorphan capsules alone, read-out: AUC0-inf) of 0.0332 µg·h/mL and an AUC(0-t) ([1]; human, plasma, oral, dextrorphan, dextromethorphan given concurrently with emvododstat) of 0.0294 µg·h/mL. The AUC(0-inf) ([1]; human, plasma, oral, dextrorphan, dextromethorphan given concurrently with emvododstat, read-out: AUC0-inf) was 0.0309 µg·h/mL and the “Geometric mean metabolite/parent ratio for AUC (dextrorphan/dextromethorphan)” value ([1]; prior to administration of emvododstat) was 1.69.

For `COc1ccc(C2c3[nH]c4ccc(Cl)cc4c3CCN2C(=O)Oc2ccc(Cl)cc2)cc1` (stereo not shown) [Emvododstat, 4-chlorophenyl 6-chloro-1-[4-methoxyphenyl]-1,3,4,9-tetrahydro-2H-pyrido[3,4-b]indole-2-carboxylate], the EC50 (SARS-CoV-2; read-out: EC50, decreased capsid protein) is given as 0.00196 µM, the EC50 (SARS-CoV-2; read-out: EC50, decreased viral titer) is given as 0.0026 µM and the EC90 (SARS-CoV-2; read-out: EC90, decreased viral titer) is given as 0.053 µM. For the same compound, the Myelotoxicity [4] was “no evidence of myelotoxicity”, the Myelotoxicity [5] was “no evidence of myelotoxicity” and the “Effect on viability or proliferation” value [6] was “does not impair”. The Ki (CYP2D6 [3]; human liver microsomes, non-competitive inhibitor, read-out: Inhibition constant (Ki) for CYP2D6) was 0.038 µM and 0.0377 µM, the IC50 (CYP2D6 [3]; in vitro) was 0.017 µM and the “In vivo CYP2D6 inhibitor classification” value (CYP2D6 [7]) was “strong inhibitor of CYP2D6 activity”. For the same compound, the Myelotoxicity [8] was “no evidence of myelotoxicity” and the Drug-related adverse effects [2] was “mild and reversible”.
